Test results as given in PubChem BioAssay AID1963421 (Molecular Pharmacology Branch, DTP, NCI, 2024).
pIC50: −log10 of the molar value. Several values for one entry are separate records, joined by “and”; a condition that tells them apart may be missing. Equal entries are not always repeated.

System: 519858-162-T-J1-PDC complex spheroid growth, % test/control
Test: Anticancer human tumor 519858-162-T-J1-PDC patient-derived colon adenocarcinoma cell line growth inhibition [Asc]
Details: for viability, T/C: stronger effect = lower value
In short: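 Concentration series start at each agent's clinical Cmax, or at 10 microM when none is established, and drop in half-log steps; agents are applied alone or together to complex spheroids built with HUVEC and hMSC.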

[1] = curve of first compound, second compound 0.00949 µM
[2] = curve of first compound, second compound 0.03 µM
[3] = curve of first compound, second compound 0.0949 µM
[4] = curve of first compound, second compound 0.3 µM
[5] = curve of first compound, second compound 0.949 µM
[6] = curve of first compound, second compound 3 µM
[7] = second compound 0.00949 µM, first compound 0.0316 µM
[8] = second compound 0.00949 µM, first compound 0.1 µM
[9] = second compound 0.00949 µM, first compound 0.316 µM
[10] = second compound 0.00949 µM, first compound 1 µM
[11] = second compound 0.00949 µM, first compound 3.16 µM
[12] = second compound 0.00949 µM, first compound 10 µM
[13] = second compound 0.03 µM, first compound 0.0316 µM
[14] = second compound 0.03 µM, first compound 0.1 µM
[15] = second compound 0.03 µM, first compound 0.316 µM
[16] = second compound 0.03 µM, first compound 1 µM
[17] = second compound 0.03 µM, first compound 3.16 µM
[18] = second compound 0.03 µM, first compound 10 µM
[19] = second compound 0.0949 µM, first compound 0.0316 µM
[20] = second compound 0.0949 µM, first compound 0.1 µM
[21] = second compound 0.0949 µM, first compound 0.316 µM
[22] = second compound 0.0949 µM, first compound 1 µM
[23] = second compound 0.0949 µM, first compound 3.16 µM
[24] = second compound 0.0949 µM, first compound 10 µM
[25] = second compound 0.3 µM, first compound 0.0316 µM
[26] = second compound 0.3 µM, first compound 0.1 µM
[27] = second compound 0.3 µM, first compound 0.316 µM
[28] = second compound 0.3 µM, first compound 1 µM
[29] = second compound 0.3 µM, first compound 3.16 µM
[30] = second compound 0.3 µM, first compound 10 µM
[31] = second compound 0.949 µM, first compound 0.0316 µM
[32] = second compound 0.949 µM, first compound 0.1 µM
[33] = second compound 0.949 µM, first compound 0.316 µM
[34] = second compound 0.949 µM, first compound 1 µM
[35] = second compound 0.949 µM, first compound 3.16 µM
[36] = second compound 0.949 µM, first compound 10 µM
[37] = second compound 3 µM, first compound 0.0316 µM
[38] = second compound 3 µM, first compound 0.1 µM
[39] = second compound 3 µM, first compound 0.316 µM
[40] = second compound 3 µM, first compound 1 µM
[41] = second compound 3 µM, first compound 3.16 µM
[42] = second compound 3 µM, first compound 10 µM
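Note: seven day drug exposure begun three days after spheroid seeding.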
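Throughout, for viability, T/C: 100% = DMSO vehicle wells and lower values mean less viable spheroid.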

SMILES: C=C(F)C(=O)N1CCN(c2nc(OCC3CCCN3C)nc3c2CCN(c2cccc4cccc(Cl)c24)C3)CC1CC#N (stereo not drawn) + CCN1C(C(=O)NC23CCC(C(=O)O)(CC2)CC3)C(c2cccc(Cl)c2F)C2(C(=O)Nc3cc(Cl)ccc32)C12CCCCC2
- pIC50 [1]: 5.13
- pIC50 [2]: < 5.00
- pIC50 [3]: < 5.00
- pIC50 [4]: 5.04
- pIC50 [5]: 5.34
- pIC50 [6]: 5.55
- viability, T/C [7]: 114%
- viability, T/C [8]: 80.6%
- viability, T/C [9]: 84.5%
- viability, T/C [10]: 96.3%
- viability, T/C [11]: 71.7%
- viability, T/C [12]: 41.4%
- viability, T/C [13]: 102%
- viability, T/C [14]: 84%
- viability, T/C [15]: 78.4%
- viability, T/C [16]: 84.3%
- viability, T/C [17]: 71.9%
- viability, T/C [18]: 52.5%
- viability, T/C [19]: 126%
- viability, T/C [20]: 110%
- viability, T/C [21]: 76.2%
- viability, T/C [22]: 102%
- viability, T/C [23]: 84.7%
- viability, T/C [24]: 41.6%
- viability, T/C [25]: 81%
- viability, T/C [26]: 73.8%
- viability, T/C [27]: 97.7%
- viability, T/C [28]: 90.5%
- viability, T/C [29]: 79.7%
- viability, T/C [30]: 47.2%
- viability, T/C [31]: 95.5%
- viability, T/C [32]: 76.6%
- viability, T/C [33]: 96.7%
- viability, T/C [34]: 86.3%
- viability, T/C [35]: 58.1%
- viability, T/C [36]: 32.4%
- viability, T/C [37]: 74.7%
- viability, T/C [38]: 81%
- viability, T/C [39]: 82.7%
- viability, T/C [40]: 70%
- viability, T/C [41]: 47.8%
- viability, T/C [42]: 26.2%

SMILES: Cn1ncnc1[C@H]1c2n[nH]c(=O)c3cc(F)cc(c23)N[C@@H]1c1ccc(F)cc1 + Cc1c(S(C)(=O)=O)c(-c2cc(F)cc(N3CCN(c4ccc(NS(=O)(=O)c5ccc(NC(CCN6CCC(C(=O)OCCCP(=O)(O)O)CC6)CSc6ccccc6)c(S(=O)(=O)C(F)(F)F)c5)cc4)CC3)c2)c(-c2ccc(Cl)cc2)n1C(C)C
- pIC50 (curve of first compound, second compound 0.0316 µM): < 7.00
- pIC50 (curve of first compound, second compound 0.1 µM): < 7.00
- pIC50 (curve of first compound, second compound 0.316 µM): < 7.00
- pIC50 (curve of first compound, second compound 1 µM): < 7.00
- pIC50 (curve of first compound, second compound 3.16 µM): < 7.00
- pIC50 (curve of first compound, second compound 10 µM): 7.00
- viability, T/C (second compound 0.0316 µM, first compound 0.000316 µM): 119%
- viability, T/C (second compound 0.0316 µM, first compound 0.001 µM): 120%
- viability, T/C (second compound 0.0316 µM, first compound 0.00316 µM): 73%
- viability, T/C (second compound 0.0316 µM, first compound 0.01 µM): 100%
- viability, T/C (second compound 0.0316 µM, first compound 0.0316 µM): 69%
- viability, T/C (second compound 0.0316 µM, first compound 0.1 µM): 95.4%
- viability, T/C (second compound 0.1 µM, first compound 0.000316 µM): 121%
- viability, T/C (second compound 0.1 µM, first compound 0.001 µM): 78.9%
- viability, T/C (second compound 0.1 µM, first compound 0.00316 µM): 85.8%
- viability, T/C (second compound 0.1 µM, first compound 0.01 µM): 123%
- viability, T/C (second compound 0.1 µM, first compound 0.0316 µM): 76.6%
- viability, T/C (second compound 0.1 µM, first compound 0.1 µM): 54.9%
- viability, T/C (second compound 0.316 µM, first compound 0.000316 µM): 115%
- viability, T/C (second compound 0.316 µM, first compound 0.001 µM): 101%
- viability, T/C (second compound 0.316 µM, first compound 0.00316 µM): 61.3%
- viability, T/C (second compound 0.316 µM, first compound 0.01 µM): 92.9%
- viability, T/C (second compound 0.316 µM, first compound 0.0316 µM): 83.7%
- viability, T/C (second compound 0.316 µM, first compound 0.1 µM): 89.4%
- viability, T/C (second compound 1 µM, first compound 0.000316 µM): 88.8%
- viability, T/C (second compound 1 µM, first compound 0.001 µM): 76.5%
- viability, T/C (second compound 1 µM, first compound 0.00316 µM): 131%
- viability, T/C (second compound 1 µM, first compound 0.01 µM): 60.8%
- viability, T/C (second compound 1 µM, first compound 0.0316 µM): 74.6%
- viability, T/C (second compound 1 µM, first compound 0.1 µM): 90.5%
- viability, T/C (second compound 3.16 µM, first compound 0.000316 µM): 104%
- viability, T/C (second compound 3.16 µM, first compound 0.001 µM): 87.1%
- viability, T/C (second compound 3.16 µM, first compound 0.00316 µM): 83.7%
- viability, T/C (second compound 3.16 µM, first compound 0.01 µM): 75.2%
- viability, T/C (second compound 3.16 µM, first compound 0.0316 µM): 113%
- viability, T/C (second compound 3.16 µM, first compound 0.1 µM): 79.1%
- viability, T/C (second compound 10 µM, first compound 0.000316 µM): 69.5%
- viability, T/C (second compound 10 µM, first compound 0.001 µM): 95.7%
- viability, T/C (second compound 10 µM, first compound 0.00316 µM): 63.2%
- viability, T/C (second compound 10 µM, first compound 0.01 µM): 49.6%
- viability, T/C (second compound 10 µM, first compound 0.0316 µM): 61.3%
- viability, T/C (second compound 10 µM, first compound 0.1 µM): 61.4%

SMILES: C=C(F)C(=O)N1CCN(c2nc(OCC3CCCN3C)nc3c2CCN(c2cccc4cccc(Cl)c24)C3)CC1CC#N (stereo not drawn)
- viability, T/C (compound 0.0316 µM): 95.4% and 95.7% and 94%
- viability, T/C (compound 0.1 µM): 109% and 79.9% and 106%
- viability, T/C (compound 0.316 µM): 97% and 96.7% and 84.9%
- viability, T/C (compound 1 µM): 89.8% and 92.8% and 78.1%
- viability, T/C (compound 3.16 µM): 94.5% and 80.9% and 93.3%
- viability, T/C (compound 10 µM): 97.4% and 72.3% and 43%
- pIC50 (curve of compound): < 5.00 and 5.07

SMILES: C=CC(=O)N1CCN(c2nc(=O)n(-c3c(C)ccnc3C(C)C)c3nc(-c4c(O)cccc4F)c(F)cc23)C(C)C1 (stereo not drawn) + CCN1C(C(=O)NC23CCC(C(=O)O)(CC2)CC3)C(c2cccc(Cl)c2F)C2(C(=O)Nc3cc(Cl)ccc32)C12CCCCC2
- pIC50 [1]: < 5.00
- pIC50 [2]: < 5.00
- pIC50 [3]: < 5.00
- pIC50 [4]: < 5.00
- pIC50 [5]: < 5.00
- pIC50 [6]: < 5.00
- viability, T/C [7]: 147%
- viability, T/C [8]: 110%
- viability, T/C [9]: 97.8%
- viability, T/C [10]: 108%
- viability, T/C [11]: 99.4%
- viability, T/C [12]: 82%
- viability, T/C [13]: 112%
- viability, T/C [14]: 87.7%
- viability, T/C [15]: 115%
- viability, T/C [16]: 91.9%
- viability, T/C [17]: 75.2%
- viability, T/C [18]: 79.7%
- viability, T/C [19]: 92.7%
- viability, T/C [20]: 106%
- viability, T/C [21]: 85.3%
- viability, T/C [22]: 99.5%
- viability, T/C [23]: 89.6%
- viability, T/C [24]: 87.8%
- viability, T/C [25]: 88.7%
- viability, T/C [26]: 89.3%
- viability, T/C [27]: 112%
- viability, T/C [28]: 90%
- viability, T/C [29]: 106%
- viability, T/C [30]: 116%
- viability, T/C [31]: 114%
- viability, T/C [32]: 78.7%
- viability, T/C [33]: 111%
- viability, T/C [34]: 70.8%
- viability, T/C [35]: 86.1%
- viability, T/C [36]: 70%
- viability, T/C [37]: 86.9%
- viability, T/C [38]: 81.7%
- viability, T/C [39]: 87%
- viability, T/C [40]: 75.1%
- viability, T/C [41]: 74.9%
- viability, T/C [42]: 91.7%
